Where two headings read alike, the source gives them in different places.
Legend:
[1] = tested on: Hamster's ear sebaceous glands; experiment: Topical antiandrogenic activity, histomorphometry of the ear sebaceous glands in the hamster; format: in vivo, Male Golden Syrian hamster; conditions: Mesocricetus auratus, 336 h, once daily, 14 days, sebaceous gland area, read-out: Antiandrogenic activity in Hamster's sebaceous glands Inh. Vs Cx (%); for inhibition in vivo at 0.001 mg: dose 1 μg applied topically on left ear of intact male hamster; for inhibition in vivo at 0.003 mg: dose 3 μg applied topically on left ear of intact male hamster; for inhibition in vivo at 0.01 mg: dose 10 μg applied topically on left ear of intact male hamster
Description: Column 3 represents the dose of antiandrogenic compounds applied on the left ear of the intact male hamster.
Column 4 represents the relative inhibition in % of the area of the sebaceous gland of the left ear versus control hamster. Higher values approaching the effect of castration are preferable
The Antiandrogenic activity of antiandrogenic compounds has been measured using a Histomorphometry assay of the Ear Sebaceous Glands in the Hamster
1. Animals Male Golden Syrian, Hamster (SYR) of 110-120 g were obtained from Harlan Sprague Dawlay (Madison, USA) and housed up to 2 per cage in plastic cages in a temperature (22±3° C.) and light (12 h light/day, lights on at 7 h 15) in a controlled environment. The hamsters were fed with Certified Rodent Diet 5002 (pellet) and tap water ad libitum. The animals were acclimated for at least five days before the beginning of the study. Animals were randomly assigned to groups of eight hamsters. One group of hamsters was castrated under isoflurane-induced anesthesia on the day of dosing initiation (SD 1) and used as control group.
2. Treatments To evaluate the antiandrogenic activity, tested compounds were applied topically on the inner part of the left ear, once daily, for 14 days. Ten μL solution of acetone: ethanol: propylene Glycol (1:1:2; v:v:v) containing 0.1, 0.3 or 1.0 mg/mL of tested compound was carefully applied onto a region between the two cartilage ridges of the ventral surface of left pinna. For animals in the castrated and intact control groups ten-μL vehicle was applied onto the left ear. No solution will be applied on the right ear for any animals of the study.
3. Postmortem Observations and Measurements On Study Day 15, the hamsters were euthanized by cervical dislocation under isoflurane anesthesia. The left and right ears were collected attached together by the head skin, flat fixed on a paper and were immersed in 10% neutral buffered formalin. From the flat fixed ear and using paper puncture that makes a hole of 6 mm, the region where solution was applied was collected from each ear. Using a scalpel blade, the collected 6 mm round ear specimen was cut in the middle between the two cartilage ridges. The two equal parts of the ear round specimen were embedded in paraffin. After processing the tissue, the two parts were vertically embedded parallel to each other in a way that the flat 6 mm area was facing out. From each paraffin block, one section (5 μm thick) was cut and collected on a glass slide. Thus, each slide contained two elongated sections of 6 mm length. Slides were stained with hematoxylin and eosin.
4. Analysis of Sebaceous Gland Area Using the video camera and objective lens number X5 of the light microscope, the resulting field that appears on the screen has a length of 0.953 mm. From the glass slide, when we have examined the first 6 mm long section from the left to the right, the first and second fields were ignored and the third and fourth fields were captured for analysis by the image analyzer. Each field has the length of 0.953 mm. With the help of the screen mouse, the sebaceous glands within the whole field length (0.953mm) were marked. Also, an area with the length of the whole field and the height between stratum granulosum and the upper edge of the cartilage was drawn.
The image analyzer calculated the total area of the sebaceous glands (μm^2) in each examined field. We also obtained the area, which has the length of 0.953 mm and the height between stratum granulosum and the cartilage. In addition, the percentage of the area occupied by the glands was obtained. Thus, for each ear, two sections were cut and two fields from each section were analyzed. The total of the four readings was averaged and the mean standard of error calculated by the image analyzer. The results were expressed in μm^2 as the total surface of glands per field and also as percentage of the area occupied by the glands.

rat prostate = experiment: Systemic antiandrogenic activity in immature male rats (castrated, DHT implant), prostate weight; conditions: po, 168 h, 0.5 mg/animal per os once daily 7 days, % efficacy relative to inhibition by flutamide, read-out: RAT (in vivo) (systemic) Prostate Inh. % inh. (0.5 mg, per os)
Description: Column 5 represents the % of antiandrogenic efficacy in rat prostate, relatively to the percentage of inhibition of flutamide calculated by the formula:
(§1) % efficacy versus Flu=100×% inhib (compound)/% inhib (Flu).
(§2) Where the percentage of inhibition (% inhib) is calculated by the following formula:
% lnhib=100−[W (compound)−W (control)/W (DHT)−W (control)]×100.
W is the weight of the prostate.
(§3) C Systemic antiandrogenic activity (immature male rats)
(§4) 1. Animals Immature male rats (Crl:CD(SD)Br) 22 to 24-day old were obtained from Charles-River, Inc. (St-Constant, Quebec, Canada) and housed up to 5 per cage in plastic bins in a temperature (23±1° C.)—and light (12 h light/day, lights on at 7h15)—controlled environment. The rats were fed rodent chow and tap water ad libitum. The day following their arrival, the animals were orchidectornized (CX) under Isoflurane anesthesia via scrotal route and randomly assigned to groups of 5 animals. One silastic implant of dihydrotestosterone (DHT; length of implant: 1 cm) was inserted subcutaneously in the dorsal area of animals at the time of orchidectomy. One group of 5 animals was CX only as control (no DHT implant inserted).
(§5) 2. Treatments To evaluate the antiandrogenic activity, tested compounds were administered orally by gavage once daily at a dose of 0.5 mg/animal for 7 days (SD 1 to 7). Compounds were solubilized (when possible) in dimethylsulfoxide (DMS, 10% final concentration) and administered as suspension in 0.4% methylcellulose. Rats in CX control and CX+DHT control groups received the vehicle alone during the 7-day period. One group of animals received the antiandrogen Flutamide as reference. The animals were killed by cervical dislocation under isoflurane anesthesia on the 8th morning following castration. The ventral prostate and seminal vesicles were rapidly dissected and weighed.
(§6) 3. Calculations and Statistical Analysis The percentage of inhibition (% inhib) is calculated by the following formula:
(§7) % Inhib=100−[W (compound)−W (control)/W (DHT)−W (control)]×100.
(§8) This percentage is reported as % of efficacy, relatively to the percentage of inhibition of flutaride calculated by the formula: % efficacy versus Flu=100×% inhib (compound)/% inhib (Flu).
(§9) W is the weight of the prostate or the seminal vesicle.

rat seminal vesicle = experiment: Systemic antiandrogenic activity in immature male rats (castrated, DHT implant), seminal vesicle weight; conditions: po, 168 h, 0.5 mg/animal per os once daily 7 days, % efficacy relative to inhibition by flutamide, read-out: RAT (in vivo) (systemic) SV Inh % inh. (0.5 mg, per os)
Description: Column 6 represents the % of antiandrogenic efficacy on the rat seminal vesicle, relative to the percentage of inhibition by flutamide calculated by the formula:
as §1, §2, §7
W is the weight of the seminal vesicle.
as §3, §4, §5, §6, §8, §9

[2] = tested on: Shionogi mouse mammary carcinoma cells; experiment: In vitro androgenic/antiandrogenic activity, DHT-stimulated Shionogi cell number; format: cell-based; conditions: for Shionogis (In Vitro) VS OH-FLU (ratio of Ki of hydroxyflutamide versus tested compound): OH-Flu = 1, DHT-stimulated cell number, higher values preferable
[3] = Mus musculus, read-out: Shionogis (In Vitro) IC50(nM), inhibition of DHT-stimulated cell number, 10-12 days

| Compound | inhibition in vivo at 0.001 mg [1] | inhibition in vivo at 0.003 mg [1] | inhibition in vivo at 0.01 mg [1] | inhibition in vivo at 0.5 mg (rat prostate) | inhibition in vivo at 0.5 mg (rat seminal vesicle) | IC50 [2, 3] | IC50 ([2]; read-out: Shionogis (In Vitro) IC50, inhibition of DHT-stimulated cell number, 10-12 days) | Shionogis (In Vitro) VS OH-FLU (ratio of Ki of hydroxyflutamide versus tested compound) [2] |
| --- | --- | --- | --- | --- | --- | --- | --- | --- |
| CC1(C)CC2C3CCc4c(C#N)cccc4C3CC[C@]2(C)[C@H]1O (stereo partly drawn) [EM-2557] | 52.4% | 42.8% | 66.6% | 6% | 0% | 15 nM | 18 nM | – |
| CC#C[C@@H]1CC2C3CCc4c(C#N)cccc4C3CC[C@]2(C)[C@H]1O (stereo partly drawn) [EM-2627] | 14.3% | 42.8% | 66.6% | 0% | 25% | 7.8 nM | – | 8.3 |
| CCC=C[C@]1(O)CCC2C3CCc4c(C#N)cccc4C3CC[C@@]21C (stereo partly drawn) [EM-3144] | 9.5% | 71.4% | 71.4% | 8% | 12% | 4.4 nM | – | 8.5 |
| CCCC#C[C@@H]1CC2C3CCc4c(C#N)cccc4C3CC[C@]2(C)[C@H]1O (stereo partly drawn) [EM-3165] | 19% | 14.3% | 23.8% | 1% | 14% | 15.1 nM | – | 7.2 |
| CC(C)C#C[C@]1(O)CCC2C3CCc4c(C#N)cccc4C3CC[C@@]21C (stereo partly drawn) [EM-3166] | 47.6% | 66.6% | 76.2% | 0% | 15% | 21.8 nM | – | 5.0 |
| CC(=O)O[C@H]1C(C)(C)CC2C3CCc4c(C#N)cccc4C3CC[C@@]21C (stereo partly drawn) [EM-3178] | 9.5% | 9.5% | 38.1% | 0% | 0% | 17 nM | – | 4.1 |
| CC[C@@]1(C)C[C@H]2[C@@H]3CCc4c(C#N)cccc4[C@H]3CC[C@]2(C)C1=O [EM-3180, 4-cyano-16α-methyl-16β-ethyl-1,3,5(10)-estratrien-17-one] | 57.1% | 90.5% | 95.2% | 0% | 0% | 35 nM | – | 2 |
| CC[C@]1(C)CC2C3CCc4c(C#N)cccc4C3CC[C@]2(C)C1=O (stereo partly drawn) [EM-3217] | 4.8% | 0% | 42.8% | – | – | – | – | ˜1 |
| CC[C@@]1(C)C[C@H]2[C@@H]3CCc4c(C#N)cccc4[C@H]3CC[C@]2(C)[C@H]1O [EM-3221, 4cyano-16α-methyl-16β-ethyl-1,3,5(10)-estratrien-17β-ol] | 0% | 9.5% | 33.3% | 0% | 1% | 3.2 nM | – | 6.6 |
| C[C@@H]1CC2C3CCc4c(C#N)cccc4C3CC[C@]2(C)C1=O (stereo partly drawn) [EM-3223] | 25.9% | 37% | 59.2% | 0% | 18% | – | – | – |
| CC[C@]1(C)CC2C3CCc4c(C#N)cccc4C3CC[C@]2(C)[C@H]1O (stereo partly drawn) [EM-3226] | 7.4% | 29.6% | 33.3% | 0% | 0% | 3.6 nM | – | 5.9 |
| CCC1(CC)CC2C3CCc4c(C#N)cccc4C3CC[C@]2(C)C1=O (stereo partly drawn) [EM-3411] | 3.7% | 14.8% | 62.9% | 0% | 10% | – | – | ˜1 |
| CC1(C)CC2C3CCc4c(Cl)cccc4C3CC[C@]2(C)[C@H]1O (stereo partly drawn) [EM-3415] | 0% | 11.1% | 44.4% | 0% | 0% | 26 nM | – | 2.5 |
| C[C@]12CCC3c4cccc(C#N)c4CCC3C1C[C@@H](C#CC1CC1)[C@@H]2O (stereo partly drawn) [EM-3473] | 7.4% | 0% | 14.8% | 0% | 0% | 9.3 nM | – | 9 |
| CC1(C)C[C@H]2[C@@H]3CCc4cc(F)ccc4[C@H]3CC[C@]2(C)[C@H]1O [EM-3497, 3fluoro-16,16-dimethyl-1,3,5(10)-estratrien-17β-ol] | 62.9% | 62.9% | 77.7% | 0% | 0% | 46 nM | – | 1.5 |

From patent publication US20040224935A1, “Topical antiandrogenic steroids” (Endorecherche, Inc., priority 2003, published 2004)
